The source of these data is patent publication US20060172951A1, “Age related macular degeneration and cutaneous signs of mercury toxicity” (priority 2005, published 2006).

“Also recorded” adds a separate entry of the source. Where a name gives a salt, the structure may show the parent alone.

The test deals with Grover's disease. Nature of the test: Treatment of patients with Grover's disease (clinical study). Type of test: in vivo, human. Particulars: three patients with Grover's disease; diet (no seafood) and chelation with Succimer 200-300 mg TID x 1-2 months. An excerpt:
Fourteen patients with Grover's disease (ages 55-85) were randomly selected from a private dermatology practice. All patients were diagnosed using the following criteria: (1) complaints of pruritic eruption of the chest, abdomen or back; (2) physical exam showing discreet small (<2 mm) scattered erythematous scaly or crusted papules of chest, abdomen or back; (3) biopsy showing a superficial perivascular infiltrate of lymphocytes, suprabasal clefts and acantholytic cells. All patients gave verbal consent for a shave biopsy of a skin lesion and a blood test for mercury. Two were women and twelve were men.
Of the fourteen patients with Grover's disease, all had measurable blood mercury (mean—10 u/Liter). All patients complained of pruritus and were aware of skin lesions. All fourteen patients were treated with topical steroids without improvement.

As to `O=C(O)[C@@H](S)[C@@H](S)C(=O)O` [Succimer, 2,3-dimercaptosuccinic acid or salt thereof], the “Effect of treatment on the cutaneous eruption of Grover's disease” value was “clearing of the eruption; also recorded: beneficial effect”.
